Results taken from PubChem BioAssay AID1259411 (Chemical Carcinogenesis Research Information System (CCRIS), 2018).
Activity calls are given as the source filed them. No rule for the calls is given here.

System: rodent carcinogenicity bioassays, tumor incidence
Experiment: CCRIS carcinogenicity studies
Summary of the method: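 NCI-built, expert-reviewed records of carcinogenicity and related test outcomes (mutagenicity, tumor promotion/inhibition) compiled from published and report sources, historical span 1985-2011, not updated.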

Measured: carcinogen call

CCOC(N)=O
active: Species: HAMSTER, Route: DERMAL, Tumor Site: Type of Lesion: INTEGUMENTARY SYSTEM (SKIN), MAMMARY GLAND active; positive | Species: HAMSTER, Route: INTRAPERITONEAL, Tumor Site: Type of Lesion: INTEGUMENTARY SYSTEM (SKIN) active; positive | Species: HAMSTER, Route: ORAL, Tumor Site: Type of Lesion: FORESTOMACH, INTEGUMENTARY SYSTEM (SKIN) active; positive | Species: HAMSTER, Route: SUBCUTANEOUS, Tumor Site: Type of Lesion: ADRENAL GLAND, FORESTOMACH, INTESTINES, INTEGUMENTARY SYSTEM (SKIN), Tumor Site: Type of Lesion: ADRENAL GLAND, FORESTOMACH, INTESTINES, INTEGUMENTARY SYSTEM (SKIN) active; positive | Species: MOUSE, Route: INHALATION, Tumor Site: Type of Lesion: LUNG active; positive | Species: MOUSE, Route: INTRAPERITONEAL, Tumor Site: Type of Lesion: HEMATOPOIETIC SYSTEM (LEUKEMIA), LYMPHATIC SYSTEM: LYMPHOMA, LUNG, LIVER, HARDERIAN GLAND, OVARIES, Tumor Site: Type of Lesion: HEMATOPOIETIC SYSTEM (LEUKEMIA), LYMPHATIC SYSTEM: LYMPHOMA, LUNG, LIVER, HARDERIAN GLAND, OVARIES active; positive | Species: MOUSE, Route: INTRAPERITONEAL, Tumor Site: Type of Lesion: LUNG, LIVER active; positive | Species: MOUSE, Route: ORAL, Tumor Site: Type of Lesion: HEMATOPOIETIC SYSTEM (LEUKEMIA): LYMPHOCYTIC LEUKEMIA, LYMPHATIC SYSTEM: LYMPHOSARCOMA, MAMMARY GLAND, LUNG, LIVER, THYM, Tumor Site: Type of Lesion: HEMATOPOIETIC SYSTEM (LEUKEMIA): LYMPHOCYTIC LEUKEMIA, LYMPHATIC SYSTEM: LYMPHOSARCOMA, MAMMARY GLAND, LUNG, LIVER, THYM active; positive | Species: MOUSE, Route: SUBCUTANEOUS, Tumor Site: Type of Lesion: HARDERIAN GLAND, HEMATOPOIETIC SYSTEM (LEUKEMIA), LIVER, LUNG, Tumor Site: Type of Lesion: HARDERIAN GLAND, HEMATOPOIETIC SYSTEM (LEUKEMIA), LIVER, LUNG active; positive | Species: MOUSE, Strain/Sex: B6C3F1/FEMALE (48/GROUP), Route: ORAL, Dose: 10, 30, 90 PPM IN DRINKING WATER (STUDY DURATION: 2 YRS), Dose: 10, 30, 90 PPM IN DRINKING WATER (STUDY DURATION: 2 YRS), Tumor Site: Type of Lesion: MAMMARY GLAND: ADENOACANTHOMA, ADENOCARCINOMA, OVARY: GRANULOSA CELL TUMOR (BENIGN OR MALIGNANT), SPLEEN: HEMANGIOSARCOM, Tumor Site: Type of Lesion: MAMMARY GLAND: ADENOACANTHOMA, ADENOCARCINOMA, OVARY: GRANULOSA CELL TUMOR (BENIGN OR MALIGNANT), SPLEEN: HEMANGIOSARCOM active; positive ; marginal but not significant increases of hemangiosarcomas occurred i | Species: MOUSE, Strain/Sex: B6C3F1/MALE (48/GROUP), Route: ORAL, Dose: 10, 30, 90 PPM IN DRINKING WATER (STUDY DURATION: 2 YRS), Dose: 10, 30, 90 PPM IN DRINKING WATER (STUDY DURATION: 2 YRS), Tumor Site: Type of Lesion: HEART: HEMANGIOSARCOMA, FORESTOMACH: SQUAMOUS CELL PAPILLOMA OR CARCINOMA (COMBINED), SKIN: SQUAMOUS CELL PAPILLOMA OR C, Tumor Site: Type of Lesion: HEART: HEMANGIOSARCOMA, FORESTOMACH: SQUAMOUS CELL PAPILLOMA OR CARCINOMA (COMBINED), SKIN: SQUAMOUS CELL PAPILLOMA OR C active; positive | Species: MOUSE, Strain/Sex: B6C3F1/MALE, FEMALE (48/GROUP), Route: ORAL, Dose: 10, 30, 90 PPM IN DRINKING WATER (STUDY DURATION: 2 YRS), Dose: 10, 30, 90 PPM IN DRINKING WATER (STUDY DURATION: 2 YRS), Tumor Site: Type of Lesion: LIVER: HEMANGIOSARCOMA, HEPATOCELLULAR ADENOMA OR CARCINOMA (COMBINED), LUNG: ADENOMA OR CARCINOMA (COMBINED): HARDERIAN active; positive | Species: MOUSE, Strain/Sex: B6C3F1/MALE, Route: INTRAPERITONEAL, Dose: 0, 125 UG/G BW IN 10 µL TRIOCTANOIN ONCE (STUDY DURATION: 9 MO), Tumor Site: Type of Lesion: LIVER: HEPATOMA active; positive | Species: MOUSE, Strain/Sex: B6C3F1/MALE, Route: ORAL, Dose: 0, 0.6, 3, 6, 60, 600 PPM IN DRINKING WATER FOR 70 WK (STUDY DURATION: 70 WK), Dose: 0, 0.6, 3, 6, 60, 600 PPM IN DRINKING WATER FOR 70 WK (STUDY DURATION: 70 WK), Tumor Site: Type of Lesion: LUNG: ALVEOLAR/BRONCHIOLAR CARCINOMA, ALVEOLAR/BRONCHIOLAR ADENOMA, LIVER: ANGIOSARCOMA, HEMANGIOMA active; positive | Species: MOUSE, Strain/Sex: C57BL, Route: INTRAPERITONEAL, Dose: 1.00 MG/G 10 TIMES AT WEEKLY INTERVALS, Tumor Site: Type of Lesion: THYMUS GLAND: LYMPHOSARCOMA, LUNG: ADENOMA active; positive | Species: MOUSE, Strain/Sex: CTM/MALE,FEMALE, Route: ORAL, Dose: 0, 0.4% IN DRINKING WATER, 1 OR 2 10-D TREATMENTS OR 1, 2 OR 3 5-D TREATMENTS WITH 10-D INTERVALS BETWEEN TREATMENTS, Dose: 0, 0.4% IN DRINKING WATER, 1 OR 2 10-D TREATMENTS OR 1, 2 OR 3 5-D TREATMENTS WITH 10-D INTERVALS BETWEEN TREATMENTS, Tumor Site: Type of Lesion: LUNG: ADENOMA, LYMPHOSARCOMA active; positive | Species: MOUSE, Strain/Sex: HR/HR/MALE, FEMALE, Route: DERMAL, Dose: 0, 10, 20, 40% IN 200 µL ACETONE 2/WK FOR STUDY DURATION (STUDY DURATION: 56-60 WK), Dose: 0, 10, 20, 40% IN 200 µL ACETONE 2/WK FOR STUDY DURATION (STUDY DURATION: 56-60 WK), Tumor Site: Type of Lesion: SKIN: CARCINOMA, PAPILLOMA, LUNG: ADENOMA active; positive | Species: MOUSE, Strain/Sex: HR/HR/MALE, FEMALE, Route: DERMAL, Dose: 0, 15, 30, 75% IN PROPYLENE GLYCOL 2/WK FOR STUDY DURATION (STUDY DURATION: 56-60 WK), Dose: 0, 15, 30, 75% IN PROPYLENE GLYCOL 2/WK FOR STUDY DURATION (STUDY DURATION: 56-60 WK), Tumor Site: Type of Lesion: SKIN: CARCINOMA, PAPILLOMA, LUNG: ADENOMA active; positive | Species: MOUSE, Strain/Sex: ICR/FEMALE, Route: INHALATION, Dose: 0, 0.25 UG/ML AIR FOR 0.25 D (TOTAL DOSE 0.25 UG/ML/D) (STUDY DURATION: 5 MO), Tumor Site: Type of Lesion: LUNG: TUMOR, HEMATOPOIETIC SYSTEM: LEUKEMIA active; positive | Species: MOUSE, Strain/Sex: ICR/FEMALE, Route: INHALATION, Dose: 0, 0.25 UG/ML AIR FOR 3 D (TOTAL DOSE 0.75 UG/ML/D) (STUDY DURATION: 5 MO), Tumor Site: Type of Lesion: LUNG: TUMOR, HEMATOPOIETIC SYSTEM: LEUKEMIA active; positive
